Read-outs that look alike come from different tables or passages of the source.

Holding throughout (test): biochemical
Holding throughout (parameters): Eurofins KinaseProfiler full panel at Km ATP, residual kinase activity (%) relative to DMSO

The target in one test is T1, EphB4(h) (Homo sapiens, UniProt P54760).
T1 sequence (P54760 1-987): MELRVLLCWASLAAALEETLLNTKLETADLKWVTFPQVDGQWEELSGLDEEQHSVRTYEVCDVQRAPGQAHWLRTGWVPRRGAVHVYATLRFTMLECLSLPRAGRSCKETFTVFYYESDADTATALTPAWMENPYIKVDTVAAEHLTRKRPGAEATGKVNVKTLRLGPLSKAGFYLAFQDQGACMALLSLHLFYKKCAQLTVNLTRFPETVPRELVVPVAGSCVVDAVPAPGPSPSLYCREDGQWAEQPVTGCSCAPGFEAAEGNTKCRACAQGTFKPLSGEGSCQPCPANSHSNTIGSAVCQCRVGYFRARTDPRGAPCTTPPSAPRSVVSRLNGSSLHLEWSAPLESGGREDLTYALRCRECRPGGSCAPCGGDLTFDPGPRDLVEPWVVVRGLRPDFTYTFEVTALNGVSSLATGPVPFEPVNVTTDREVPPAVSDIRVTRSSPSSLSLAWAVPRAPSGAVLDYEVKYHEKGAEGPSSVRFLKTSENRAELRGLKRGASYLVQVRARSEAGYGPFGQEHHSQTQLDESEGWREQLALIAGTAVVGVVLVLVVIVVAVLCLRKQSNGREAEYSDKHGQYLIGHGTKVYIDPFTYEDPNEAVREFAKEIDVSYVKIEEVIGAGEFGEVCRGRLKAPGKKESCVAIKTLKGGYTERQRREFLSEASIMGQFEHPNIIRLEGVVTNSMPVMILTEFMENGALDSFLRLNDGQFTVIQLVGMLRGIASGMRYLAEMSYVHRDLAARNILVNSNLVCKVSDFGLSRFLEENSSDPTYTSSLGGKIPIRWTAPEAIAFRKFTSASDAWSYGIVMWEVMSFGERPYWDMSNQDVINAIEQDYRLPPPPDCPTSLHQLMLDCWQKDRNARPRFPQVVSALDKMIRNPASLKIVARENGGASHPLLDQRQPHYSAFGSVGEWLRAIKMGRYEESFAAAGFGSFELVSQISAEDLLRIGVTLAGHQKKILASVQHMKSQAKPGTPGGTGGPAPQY
The gist of the method:
(§1)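 Two 10 µM single-concentration screens were run: a competition-binding screen, in which DNA-tagged kinase bound to immobilized ligands was quantified by qPCR, and a radiometric activity panel at Km ATP. Each is expressed as residual kinase activity (%).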

In another test the target is T2, Arg(m) (Mus musculus, UniProt Q4JIM5).
T2 construct: gene Abl2
Put shortly:
as §1

The target of a further test is T3, MEKK2(h) (Homo sapiens, UniProt Q9Y2U5).
T3 construct: gene MAP3K2
T3 sequence (Q9Y2U5 1-619): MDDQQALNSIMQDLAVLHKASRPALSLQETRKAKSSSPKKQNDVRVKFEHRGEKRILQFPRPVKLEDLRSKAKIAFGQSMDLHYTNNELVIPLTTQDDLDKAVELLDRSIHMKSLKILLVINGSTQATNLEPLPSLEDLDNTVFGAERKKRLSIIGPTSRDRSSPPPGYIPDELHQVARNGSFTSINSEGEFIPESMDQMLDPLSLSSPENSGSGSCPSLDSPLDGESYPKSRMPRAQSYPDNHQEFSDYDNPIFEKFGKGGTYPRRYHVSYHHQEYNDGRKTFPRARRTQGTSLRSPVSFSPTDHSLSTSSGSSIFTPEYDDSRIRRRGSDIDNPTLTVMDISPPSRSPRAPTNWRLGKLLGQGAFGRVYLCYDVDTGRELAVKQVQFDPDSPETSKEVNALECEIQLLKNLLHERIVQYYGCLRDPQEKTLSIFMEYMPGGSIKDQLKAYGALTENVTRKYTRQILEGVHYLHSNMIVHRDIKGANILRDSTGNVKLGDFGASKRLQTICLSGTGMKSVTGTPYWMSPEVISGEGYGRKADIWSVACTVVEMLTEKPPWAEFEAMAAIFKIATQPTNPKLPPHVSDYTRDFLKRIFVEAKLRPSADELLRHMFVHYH
Put shortly: as §1

For a further test, the target named is T4, VRK1(h) (Homo sapiens, UniProt Q99986).
T4 sequence (Q99986 1-396): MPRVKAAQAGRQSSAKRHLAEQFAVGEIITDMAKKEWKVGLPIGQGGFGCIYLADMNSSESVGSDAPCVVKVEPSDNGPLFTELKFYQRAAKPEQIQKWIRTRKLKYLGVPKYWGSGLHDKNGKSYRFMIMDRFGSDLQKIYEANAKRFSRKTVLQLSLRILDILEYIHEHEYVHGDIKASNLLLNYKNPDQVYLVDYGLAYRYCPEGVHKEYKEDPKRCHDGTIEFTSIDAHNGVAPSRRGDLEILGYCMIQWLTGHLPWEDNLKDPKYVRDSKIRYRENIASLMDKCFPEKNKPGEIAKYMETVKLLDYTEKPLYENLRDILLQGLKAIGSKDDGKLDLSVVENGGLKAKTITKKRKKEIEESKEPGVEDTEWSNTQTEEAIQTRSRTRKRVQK
The gist of the method:
as §1

In the next test the target is T5, PDGFRβ(h) (Homo sapiens, UniProt P09619).
T5 construct: gene PDGFRB
Put shortly:
as §1

The target of a further test is T6, TrkB(h) (Homo sapiens, UniProt Q16620).
T6 construct: gene NTRK2
The gist of the method:
as §1

The mark [1] stands for this setting: read-out: Residual activity (%) Spautin-1 5aa.
The mark [2] stands for this setting: read-out: Residual activity (%) 5as.
[3] abbreviates: read-out: Residual activity (%) 5at.
Where [4] appears, read: read-out: Residual activity (%) 5ay.

T2 sequence (Q4JIM5 whole entry): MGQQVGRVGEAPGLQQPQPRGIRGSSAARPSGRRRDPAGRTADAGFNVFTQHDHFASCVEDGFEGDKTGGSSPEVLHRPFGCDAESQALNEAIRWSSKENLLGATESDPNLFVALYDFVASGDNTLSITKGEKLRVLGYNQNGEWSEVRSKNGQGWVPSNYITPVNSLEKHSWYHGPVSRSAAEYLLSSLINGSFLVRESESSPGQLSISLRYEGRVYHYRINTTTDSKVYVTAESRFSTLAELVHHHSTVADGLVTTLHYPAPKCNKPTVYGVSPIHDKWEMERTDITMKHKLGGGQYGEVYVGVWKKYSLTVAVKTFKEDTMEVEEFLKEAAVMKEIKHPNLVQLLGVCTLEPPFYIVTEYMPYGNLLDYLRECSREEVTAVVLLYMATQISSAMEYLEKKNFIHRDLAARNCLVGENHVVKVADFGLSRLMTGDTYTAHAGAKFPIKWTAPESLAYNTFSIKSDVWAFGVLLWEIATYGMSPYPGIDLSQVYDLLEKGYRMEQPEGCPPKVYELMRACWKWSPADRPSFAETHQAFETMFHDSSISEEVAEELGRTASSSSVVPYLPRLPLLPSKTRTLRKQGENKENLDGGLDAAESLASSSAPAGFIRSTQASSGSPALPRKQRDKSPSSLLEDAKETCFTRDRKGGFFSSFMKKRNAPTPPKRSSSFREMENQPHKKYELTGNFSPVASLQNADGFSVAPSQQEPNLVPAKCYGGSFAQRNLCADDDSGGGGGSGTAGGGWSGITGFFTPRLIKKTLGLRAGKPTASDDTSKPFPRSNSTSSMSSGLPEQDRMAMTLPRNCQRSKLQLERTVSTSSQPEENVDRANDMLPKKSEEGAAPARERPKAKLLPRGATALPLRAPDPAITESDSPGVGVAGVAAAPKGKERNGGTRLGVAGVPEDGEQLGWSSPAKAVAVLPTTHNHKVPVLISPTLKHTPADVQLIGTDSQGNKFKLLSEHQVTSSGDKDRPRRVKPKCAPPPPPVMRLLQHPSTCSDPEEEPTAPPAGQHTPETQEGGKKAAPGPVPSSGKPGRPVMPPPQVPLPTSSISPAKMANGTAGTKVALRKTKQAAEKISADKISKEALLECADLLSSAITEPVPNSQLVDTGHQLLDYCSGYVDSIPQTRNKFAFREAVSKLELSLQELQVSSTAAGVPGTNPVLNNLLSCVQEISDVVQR
T5 sequence (P09619 whole entry): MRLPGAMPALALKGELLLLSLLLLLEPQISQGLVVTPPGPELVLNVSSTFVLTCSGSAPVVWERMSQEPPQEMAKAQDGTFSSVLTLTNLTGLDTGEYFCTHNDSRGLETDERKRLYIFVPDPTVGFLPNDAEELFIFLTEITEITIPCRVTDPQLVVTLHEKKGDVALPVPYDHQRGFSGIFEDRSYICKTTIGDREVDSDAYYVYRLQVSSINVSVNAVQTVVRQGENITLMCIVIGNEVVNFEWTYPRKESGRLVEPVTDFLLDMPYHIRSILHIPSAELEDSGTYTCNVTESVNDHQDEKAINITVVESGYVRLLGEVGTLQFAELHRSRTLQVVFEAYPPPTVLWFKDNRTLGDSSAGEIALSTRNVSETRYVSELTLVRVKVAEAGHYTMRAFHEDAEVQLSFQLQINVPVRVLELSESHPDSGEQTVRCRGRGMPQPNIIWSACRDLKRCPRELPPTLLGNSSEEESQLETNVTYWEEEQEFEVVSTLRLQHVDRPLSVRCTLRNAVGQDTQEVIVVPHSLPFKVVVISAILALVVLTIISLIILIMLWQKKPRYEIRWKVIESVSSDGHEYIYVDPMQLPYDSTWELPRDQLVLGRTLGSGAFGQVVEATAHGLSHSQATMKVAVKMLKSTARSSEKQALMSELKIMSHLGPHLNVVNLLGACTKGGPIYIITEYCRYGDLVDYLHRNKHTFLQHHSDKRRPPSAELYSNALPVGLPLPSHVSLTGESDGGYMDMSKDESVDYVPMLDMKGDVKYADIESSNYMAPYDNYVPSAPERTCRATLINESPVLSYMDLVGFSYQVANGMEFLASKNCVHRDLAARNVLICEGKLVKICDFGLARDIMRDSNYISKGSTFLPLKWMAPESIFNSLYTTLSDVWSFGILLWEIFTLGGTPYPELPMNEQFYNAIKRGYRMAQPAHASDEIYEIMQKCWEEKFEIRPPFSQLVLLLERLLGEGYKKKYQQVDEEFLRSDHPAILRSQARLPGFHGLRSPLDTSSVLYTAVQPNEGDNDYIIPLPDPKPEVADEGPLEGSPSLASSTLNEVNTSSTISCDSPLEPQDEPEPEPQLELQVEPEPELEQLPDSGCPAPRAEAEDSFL
T6 sequence (Q16620 whole entry): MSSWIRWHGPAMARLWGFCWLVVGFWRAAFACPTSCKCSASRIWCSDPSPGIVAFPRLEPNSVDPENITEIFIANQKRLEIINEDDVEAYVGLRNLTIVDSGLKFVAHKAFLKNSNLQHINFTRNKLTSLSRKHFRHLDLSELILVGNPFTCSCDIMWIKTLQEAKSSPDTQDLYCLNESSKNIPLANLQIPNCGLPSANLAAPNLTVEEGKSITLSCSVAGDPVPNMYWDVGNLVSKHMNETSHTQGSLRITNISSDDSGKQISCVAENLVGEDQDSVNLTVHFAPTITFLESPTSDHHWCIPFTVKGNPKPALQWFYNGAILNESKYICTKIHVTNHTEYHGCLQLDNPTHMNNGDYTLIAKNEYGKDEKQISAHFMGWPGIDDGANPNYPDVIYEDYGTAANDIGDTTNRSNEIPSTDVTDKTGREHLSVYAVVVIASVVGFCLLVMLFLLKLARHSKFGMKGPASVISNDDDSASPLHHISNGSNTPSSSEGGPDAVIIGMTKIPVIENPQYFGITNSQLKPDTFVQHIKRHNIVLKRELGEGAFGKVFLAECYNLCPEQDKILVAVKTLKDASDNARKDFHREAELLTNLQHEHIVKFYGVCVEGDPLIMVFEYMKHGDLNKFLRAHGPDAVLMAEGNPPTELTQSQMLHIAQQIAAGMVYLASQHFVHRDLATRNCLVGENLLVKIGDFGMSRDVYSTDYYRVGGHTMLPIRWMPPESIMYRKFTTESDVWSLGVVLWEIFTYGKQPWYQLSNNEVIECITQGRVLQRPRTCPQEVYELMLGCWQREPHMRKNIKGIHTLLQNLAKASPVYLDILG

In the case of `Fc1ccc(CNc2ncnc3ccc(F)cc23)cc1` [5aa, 6-Fluoro-N-(4-fluorobenzyl)-4-Quinazolinamine], the remaining activity at 10 µM on EphB4(h) (setting [1]) was found to be 68%; on Arg(m) (setting [1]) it was 91%; on MEKK2(h) (setting [1]) it was 113%; at VRK1(h) (setting [1]), 94%; on PDGFRβ(h) (setting [1]), 97%; on TrkB(h) (setting [1]), 87%.
Consider `Fc1ccc(CCNc2ncnc3ccc(F)cc23)cc1` [5as, 6-Fluoro-N-[2-(4-Fluorophenyl)Ethyl]-4-Quinazolinamine], for which the remaining activity at 10 µM on EphB4(h) (setting [2]) was determined as 59%; on Arg(m) (setting [2]) it was 105%; on MEKK2(h) (setting [2]), 99%; on VRK1(h) (setting [2]), 82%; at PDGFRβ(h) (setting [2]), 104%; on TrkB(h) (setting [2]) it was 81%.
For `Fc1ccc2ncnc(NCCc3ccc(Cl)cc3)c2c1` [5at, N-[2-(4-Chlorophenyl)Ethyl]-6-Fluoro-4-Quinazolinamine], the remaining activity at 10 µM on EphB4(h) (setting [3]) was 68%; at Arg(m) (setting [3]), 98%; on MEKK2(h) (setting [3]), 102%; on VRK1(h) (setting [3]), 79%; at PDGFRβ(h) (setting [3]), 109%; on TrkB(h) (setting [3]) it was 81%.
With `COc1ccc2ncnc(Nc3cccc(F)c3)c2c1` [5ay, N-(3-Fluorophenyl)-6-Methoxy-4-Quinazolinamine], the remaining activity at 10 µM at EphB4(h) (setting [4]) was determined as 63%; on Arg(m) (setting [4]) it was 83%; at MEKK2(h) (setting [4]), 108%; at VRK1(h) (setting [4]), 89%; on PDGFRβ(h) (setting [4]), 113%; at TrkB(h) (setting [4]), 96%.

(Values after publication PMC7827406, “Structure–Activity Relationship (SAR) Study of Spautin-1 to Entail the Discovery of Novel NEK4 Inhibitors” (International Journal of Molecular Sciences, 2021).)
